Species: Rattus norvegicus
Assay: Open TG-GATES - Regimen: Daily Repeat
Type: toxicity, organism-based, Sprague-Dawley
Parameters: regimen Daily Repeat, gender Male, age 6 weeks
Details: in vivo, po, 6 mg/kg, route gavage, dose level Low; for APTT / Bas / Eos / Fbg / Hb / Ht / Lym / MCH / MCHC / MCV / Mono / Neu / PT / Plat / RBC / Ret / WBC: tissue Blood
[1] = 72 h, tissue Kidney, time 3 day
[2] = 72 h, tissue Plasma, time 3 day

`CC(C)NNC(=O)c1ccncc1` [IPRONIAZID] showed a TERMINAL_BW (72 h, time 3 day) of 205.6 g, an APTT (72 h, time 3 day) of 20.8 s and a Bas (72 h, time 3 day) of 0%. It also gave an Eos (72 h, time 3 day) of 1%, a Fbg (72 h, time 3 day) of 309.2 mg/dL and a Hb (72 h, time 3 day) of 13.5 g/dL. The Ht (72 h, time 3 day) was 39.1%, the Lym (72 h, time 3 day) was 78.4% and the MCH (72 h, time 3 day) was 21.3 pg. It also gave an MCHC (72 h, time 3 day) of 34.4%, an MCV (72 h, time 3 day) of 61.9 fL and a Mono (72 h, time 3 day) of 2.2%. The Neu (72 h, time 3 day) was 17.2%, the PT (72 h, time 3 day) was 16.2 s and the Plat (72 h, time 3 day) was 123.8 x10_4/uL. The RBC (72 h, time 3 day) was 632.6 x10_4/ul, the Ret (72 h, time 3 day) was 6.8% and the WBC (72 h, time 3 day) was 92 x10_2/uL. For the same molecule, the KIDNEY_L [1] was 0.9 g, the KIDNEY_R [1] was 0.9 g and the KIDNEY_TOTAL [1] was 1.8 g. It also gave an LIVER (72 h, tissue Liver, time 3 day) of 9.6 g, an A/G [2] of 1.4 and an ALP [2] of 1667 IU/L. The ALT [2] was 37.4 IU/L, the AST [2] was 73.8 IU/L and the BUN [2] was 17.2 mg/dL. For the same molecule, the CRE [2] was 0.2 mg/dL, the Ca [2] was 10.6 mg/dL and the Cl [2] was 108.8 meq/L. The DBIL [2] was 0 mg/dL, the GLC [2] was 187.2 mg/dL and the IP [2] was 7.2 mg/dL. It also gave a K [2] of 4.3 meq/L, an LDH [2] of 266.6 IU/L and a Na [2] of 143.2 meq/L. The PL [2] was 146.2 mg/dL, the RALB [2] was 3.2 g/dL and the TBIL [2] was 0.002 mg/dL. It also gave a TC [2] of 77.2 mg/dL, a TG [2] of 102.2 mg/dL and a TP [2] of 5.6 g/dL. It also gave a gamma-GTP [2] of 1.2 IU/L, a TERMINAL_BW ([…], time 7 day) of 237.7 g and a TERMINAL_BW ([…], time 14 day) of 274.7 g. For the same molecule, the TERMINAL_BW ([…], time 28 day) was 367.4 g, the APTT ([…], time 7 day) was 21.4 s and the Bas ([…], time 7 day) was 0%. It also gave an Eos ([…], time 7 day) of 0.8%, a Fbg ([…], time 7 day) of 315.6 mg/dL and a Hb ([…], time 7 day) of 13.4 g/dL. For the same molecule, the Ht ([…], time 7 day) was 37.5%, the Lym ([…], time 7 day) was 83.6% and the MCH ([…], time 7 day) was 21.3 pg. For the same molecule, the MCHC ([…], time 7 day) was 35.6%, the MCV ([…], time 7 day) was 59.7 fL and the Mono ([…], time 7 day) was 2.2%. It also gave a Neu ([…], time 7 day) of 12.6%, a PT ([…], time 7 day) of 15.4 s and a Plat ([…], time 7 day) of 114 x10_4/uL. For the same molecule, the RBC ([…], time 7 day) was 628.6 x10_4/ul, the Ret ([…], time 7 day) was 5.1% and the WBC ([…], time 7 day) was 110.8 x10_2/uL. The APTT ([…], time 14 day) was 22.2 s, the Bas ([…], time 14 day) was 0% and the Eos ([…], time 14 day) was 1%. For the same molecule, the Fbg ([…], time 14 day) was 289.4 mg/dL, the Hb ([…], time 14 day) was 13.8 g/dL and the Ht ([…], time 14 day) was 40%. For the same molecule, the Lym ([…], time 14 day) was 81.6%, the MCH ([…], time 14 day) was 20.1 pg and the MCHC ([…], time 14 day) was 34.6%. It also gave an MCV ([…], time 14 day) of 58 fL, a Mono ([…], time 14 day) of 2.2% and a Neu ([…], time 14 day) of 14.8%. The PT ([…], time 14 day) was 15.7 s, the Plat ([…], time 14 day) was 118.3 x10_4/uL and the RBC ([…], time 14 day) was 690.8 x10_4/ul. For the same molecule, the Ret ([…], time 14 day) was 4.7%, the WBC ([…], time 14 day) was 112.4 x10_2/uL and the APTT ([…], time 28 day) was 22.6 s. It also gave a Bas ([…], time 28 day) of 0%, an Eos ([…], time 28 day) of 1% and a Fbg ([…], time 28 day) of 317 mg/dL. For the same molecule, the Hb ([…], time 28 day) was 13.7 g/dL and the Ht ([…], time 28 day) was 39%.
